Measurements taken from ChEMBL document CHEMBL4152314, “Symmetrical and unsymmetrical substituted 2,5-diarylidene cyclohexanones as anti-parasitic compounds” (Eur J Med Chem, 2018).

Assays:
Trypanosoma cruzi [1] = test: Antiparasitic activity against epimastigote form of Trypanosoma cruzi Y assessed as parasite growth inhibition after 96 hrs by Neubauer hemocytometer; format: functional, organism-based
[2] = Selectivity index, ratio of CC50 for African green monkey Vero cells to IC50 for promastigote form of Leishmania amazonensis MHOM/BR/Josefa; format: toxicity; conditions: read-out: Ratio CC50/IC50
[3] = Cytotoxicity against African green monkey Vero cells assessed as growth inhibition; format: cell-based; conditions: chlorocebus sabaeus
[4] = Selectivity index, ratio of CC50 for African green monkey Vero cells to EC50 for trypomastigote form of Trypanosoma cruzi; format: toxicity; conditions: read-out: Ratio CC50/EC50
Trypanosoma cruzi [5] = test: Antiparasitic activity against trypomastigote form of Trypanosoma cruzi assessed as parasite lysis after 24 hrs by Pizzi-Brener method; format: functional, organism-based
Leishmania amazonensis = test: Antiparasitic activity against promastigote form of Leishmania amazonensis MHOM/BR/Josefa assessed as parasite growth inhibition after 72 hrs by Neubauer hemocytometer; format: functional, organism-based
[6] = Selectivity index, ratio of CC50 for African green monkey Vero cells to IC50 for epimastigote form of Trypanosoma cruzi Y; format: toxicity; conditions: read-out: Ratio CC50/IC50

Row | IC50 (Trypanosoma cruzi [1]) [µM] | EC50 (Trypanosoma cruzi [5]) [µM] | Structure (SMILES) | selectivity ratio [2] | CC50 [3] [µM] | selectivity ratio [4] | IC50 (Leishmania amazonensis) [µM] | selectivity ratio [6]
1 | > 100 | 78 | O=C1/C(=C/c2ccc3c(c2)OCO3)CCC/C1=C\c1ccc2c(c1)OCO2 | 11.7 | 257 | 3.3 | 22 | 
2 | > 100 | > 100 | COc1ccc(/C=C2\CCC/C(=C\c3ccc([N+](=O)[O-])cc3)C2=O)cc1 |  | 435 |  | > 100 | 
3 | 54.8 | > 100 | COc1ccc(/C=C2\CCCCC2=O)cc1 | 3.6 | 194 |  | 54 | 3.5
4 | 33.3 | 27.7 | COc1cccc(/C=C2\CCC/C(=C\c3ccc([N+](=O)[O-])cc3)C2=O)c1OC |  | < 10 |  | 3.9 | 
5 | 9.5 | 69.5 | COc1cc(/C=C2\CCC/C(=C\c3cc(OC)c(OC)c(OC)c3)C2=O)cc(OC)c1OC | 9.1 | 155 | 2.2 | 17 | 16.3
6 | 20.5 | 54.2 | COc1ccc(/C=C2\CCC/C(=C\c3c(Cl)cccc3Cl)C2=O)cc1 | 44.6 | 232 | 4.3 | 5.2 | 11.3
7 | 33 | 72 | COc1cccc(/C=C2\CCC/C(=C\c3cccc(Br)c3)C2=O)c1OC | 1.6 | 31.5 | 0.4 | 19.8 | 1
8 | 26.1 | 82 | COc1cccc(/C=C2\CCC/C(=C\C(C)Cc3ccc4c(c3)OCO4)C2=O)c1OC (stereo not drawn) | 17.8 | 178 | 2.2 | 10 | 6.8
9 | > 100 | > 100 | COc1cccc(/C=C2\CCCCC2=O)c1OC |  | 720 |  | > 100 | 
10 | 20.6 | > 100 | COc1ccc(/C=C2\CCC/C(=C\c3ccccc3)C2=O)cc1 | 24.6 | 291 |  | 11.8 | 14.1
11 | 21 | > 100 | COc1ccc(/C=C2\CCC/C(=C\c3ccc(F)cc3)C2=O)cc1 | 35 | 378 |  | 10.8 | 18
12 | 3 | 30.2 | COc1cccc(/C=C2\CCC/C(=C\c3cc(OC)c(OC)c(OC)c3)C2=O)c1OC | 11.3 | 29.3 | 1 | 2.6 | 9.8
13 | 5.2 | 27.4 | COc1ccc(/C=C2\CCC/C(=C\c3cccc(OC)c3OC)C2=O)cc1 | 45.1 | 401 | 14.6 | 8.9 | 77.2
14 | 25.8 | 60 | COc1cccc(/C=C2\CCC/C(=C\c3ccccc3)C2=O)c1OC | 2 | 33.5 | 0.6 | 16.7 | 1.3
15 | 55 | > 100 | COc1ccc(/C=C2\CCC/C(=C\c3ccc(Br)cc3)C2=O)cc1 | 14.5 | 250 |  | 17.3 | 4.5
16 | 83.9 | 93.5 | O=C1/C(=C/c2c(Cl)cccc2Cl)CCC/C1=C\c1c(Cl)cccc1Cl | 117 | 574 | 6.1 | 4.9 | 6.8
17 | 21.6 | > 100 | COc1ccc(/C=C2\CCC/C(=C\c3ccc(Cl)cc3)C2=O)cc1 | 22.5 | 401 |  | 17.8 | 18.6
18 | 28.5 | 23.8 | COc1ccc(/C=C2\CCC/C(=C\c3cccc(OC)c3OC)C2=O)cc1OC | 8 | 36.1 | 1.5 | 4.5 | 1.3

Row | IC50 (Trypanosoma cruzi [1]) [µM] | EC50 (Trypanosoma cruzi [5]) [µM] | Structure (SMILES) | selectivity ratio [2] | CC50 [3] [µM] | selectivity ratio [4] | IC50 (Leishmania amazonensis) [µM] | selectivity ratio [6]
19 | 24.4 | 70.2 | COc1cccc(/C=C2\CCC/C(=C\c3ccc(F)cc3)C2=O)c1OC | 7.1 | 33.2 | 0.5 | 4.7 | 1.4
20 | > 100 | > 100 | COc1ccc(/C=C2\CCC/C(=C\c3ccc(N(C)C)cc3)C2=O)cc1 | 4.3 | 392 |  | 91 | 
21 | 35 | 77 | COc1cccc(/C=C2\CCC/C(=C\c3ccc(Br)cc3)C2=O)c1OC | 1.6 | 31.5 | 0.4 | 20.1 | 0.9
22 | 26.5 | > 100 | COc1cc([N+](=O)[O-])ccc1/C=C1\CCC/C(=C\c2cccc(OC)c2OC)C1=O | 25 | 120 |  | 4.8 | 4.5
23 | 26.6 | > 100 | COc1ccc(/C=C2\CCC/C(=C\c3ccccc3Cl)C2=O)cc1 | 18.3 | 238 |  | 13 | 8.9
24 | 20.2 | > 100 | COc1ccc(/C=C2\CCC/C(=C\c3cccc(Br)c3)C2=O)cc1 | 5.3 | 30 |  | 5.7 | 1.5
25 | 13.6 | > 100 | COc1ccc(/C=C2\CCC/C(=C\c3ccccc3F)C2=O)cc1 | 29.9 | 270 |  | 9 | 19.8
26 | 26.2 | 35 | COc1cccc(/C=C2\CCC/C(=C\c3c(Cl)cccc3Cl)C2=O)c1OC | 43.3 | 160 | 4.6 | 3.7 | 6.1
27 | 16.2 | 85.3 | O=C1/C(=C/c2ccc(Cl)cc2)CCC/C1=C\c1ccc(Cl)cc1 | 8.9 | 32.1 | 0.4 | 3.6 | 2
28 | 29.3 | 49 | O=C1/C(=C/c2ccc(Br)cc2)CCC/C1=C\c1ccc(Br)cc1 | 13.8 | 58 | 1.2 | 4.2 | 2
29 | 33.3 | 63.2 | O=C1/C(=C/c2cccc(Br)c2)CCC/C1=C\c1cccc(Br)c1 | 15.6 | 35.9 | 0.6 | 2.3 | 1.1
30 | 23.6 | 27 | COc1cccc(/C=C2\CCC/C(=C\c3cccc(OC)c3OC)C2=O)c1OC | 6.1 | 24.9 | 0.9 | 4.1 | 1.1
31 | 24.7 | 68.7 | O=C1/C(=C/c2ccc(F)cc2)CCC/C1=C\c1ccc(F)cc1 | 8 | 34.4 | 0.5 | 4.3 | 1.4
32 | 27.8 | 36.2 | O=C1/C(=C/c2ccccc2Cl)CCC/C1=C\c1ccccc1Cl | 6.7 | 30.6 | 0.8 | 4.6 | 1.1
33 | 63.6 | > 100 | COc1ccc(/C=C2\CCC/C(=C\c3ccc(OC)cc3)C2=O)cc1 | 5.3 | 178 |  | 33.3 | 2.8
34 | 18.4 | 76.2 | O=C1/C(=C/c2ccccc2)CCC/C1=C\c1ccccc1 [2,6-DIBENZYLIDENECYCLOHEXANONE] | 14.5 | 40.6 | 0.5 | 2.8 | 2.2
35 | 67.3 | 15 | COc1cc(/C=C/C(=O)CC(=O)/C=C/c2ccc(O)c(OC)c2)ccc1O [CURCUMIN] |  | 36.8 | 2.5 | > 100 | 0.5

Row | Structure (SMILES) | IC50 (Trypanosoma cruzi [1]) [µM] | EC50 (Trypanosoma cruzi [5]) [µM] | selectivity ratio [2] | CC50 [3] [µM] | selectivity ratio [4] | IC50 (Leishmania amazonensis) [µM] | selectivity ratio [6]
36 | O=C(Cn1ccnc1[N+](=O)[O-])NCc1ccccc1 [BENZNIDAZOLE] | 6.5 |  |  |  |  |  | 
